Values joined by “and” are separate entries in the source; they are usually repeats but may differ in a detail not shown here. Equal entries are not always repeated. ± gives the expanded uncertainty stated by the source.
What was measured:
[1] = xn = mol fraction of the nth substance listed; settings: 102 kPa, Liquid, x2 = 0; for viscosity: Concentric cylinders viscometry; for mass density: Vibrating tube method
[2] = Liquid; for viscosity: Concentric cylinders viscometry; for speed of sound: Single path-length method; for mass density: Vibrating tube method
[3] = 293.15 K, 102 kPa, Frequency=3 MHz
[4] = 303.15 K, 102 kPa, Frequency=3 MHz
[5] = 313.15 K, 102 kPa, Frequency=3 MHz
[6] = 323.15 K, 102 kPa, Frequency=3 MHz
[7] = 333.15 K, 102 kPa, Frequency=3 MHz

Row | SMILES | viscosity ([2]; 293.15 K, 102 kPa) | speed of sound [2, 3] | mass density ([2]; 293.15 K, 102 kPa) | viscosity ([2]; 303.15 K, 102 kPa) | speed of sound [2, 4] | mass density ([2]; 303.15 K, 102 kPa) | viscosity ([2]; 313.15 K, 102 kPa) | speed of sound [2, 5] | mass density ([2]; 313.15 K, 102 kPa) | viscosity ([2]; 323.15 K, 102 kPa) | speed of sound [2, 6] | mass density ([2]; 323.15 K, 102 kPa) | viscosity ([2]; 333.15 K, 102 kPa) | mass density ([2]; 333.15 K, 102 kPa) | viscosity ([2]; 343.15 K, 102 kPa) | mass density ([2]; 343.15 K, 102 kPa) | viscosity ([2]; 353.15 K, 102 kPa) | mass density ([2]; 353.15 K, 102 kPa) | viscosity ([2]; 363.15 K, 102 kPa) | mass density ([2]; 363.15 K, 102 kPa) | further results
1 | CCCCCCCCCCCCCCCC [hexadecane] + CCCCCCCCC1CCCCC1 |  |  |  |  |  |  |  |  |  |  |  |  |  |  |  |  |  |  |  |  | viscosity ([1]; 293.15 K): 3.47 ± 0.02 mPa·s; mass density ([1]; 293.15 K): 773.37 ± 0.81 kg/m3; viscosity ([1]; 303.15 K): 2.76 ± 0.02 mPa·s; mass density ([1]; 303.15 K): 766.43 ± 0.81 kg/m3; viscosity ([1]; 313.15 K): 2.24 ± 0.02 mPa·s; mass density ([1]; 313.15 K): 759.51 ± 0.81 kg/m3; viscosity ([1]; 323.15 K): 1.86 ± 0.01 mPa·s; mass density ([1]; 323.15 K): 752.61 ± 0.81 kg/m3; viscosity ([1]; 333.15 K): 1.56 ± 0.01 mPa·s; mass density ([1]; 333.15 K): 745.69 ± 0.81 kg/m3; viscosity ([1]; 343.15 K): 1.35 ± 0.01 mPa·s; mass density ([1]; 343.15 K): 738.8 ± 0.8 kg/m3; viscosity ([1]; 353.15 K): 1.15 ± 0.01 mPa·s; mass density ([1]; 353.15 K): 731.9 ± 0.8 kg/m3; viscosity ([1]; 363.15 K): 1.02 ± 0.01 mPa·s; mass density ([1]; 363.15 K): 724.9 ± 0.8 kg/m3; viscosity ([1]; 373.15 K): 0.885 ± 0.012 mPa·s; mass density ([1]; 373.15 K): 717.9 ± 0.8 kg/m3
2 | CCCCCCCCCCCCCCCC [hexadecane] + CCCCCCCC1CCCCC1 |  |  |  |  |  |  |  |  |  |  |  |  |  |  |  |  |  |  |  |  | viscosity ([1]; 293.15 K): 3.47 ± 0.02 mPa·s; mass density ([1]; 293.15 K): 773.37 ± 0.81 kg/m3; viscosity ([1]; 303.15 K): 2.76 ± 0.02 mPa·s; mass density ([1]; 303.15 K): 766.43 ± 0.81 kg/m3; viscosity ([1]; 313.15 K): 2.24 ± 0.02 mPa·s; mass density ([1]; 313.15 K): 759.51 ± 0.81 kg/m3; viscosity ([1]; 323.15 K): 1.86 ± 0.01 mPa·s; mass density ([1]; 323.15 K): 752.61 ± 0.81 kg/m3; viscosity ([1]; 333.15 K): 1.56 ± 0.01 mPa·s; mass density ([1]; 333.15 K): 745.69 ± 0.81 kg/m3; viscosity ([1]; 343.15 K): 1.35 ± 0.01 mPa·s; mass density ([1]; 343.15 K): 738.8 ± 0.8 kg/m3; viscosity ([1]; 353.15 K): 1.15 ± 0.01 mPa·s; mass density ([1]; 353.15 K): 731.9 ± 0.8 kg/m3; viscosity ([1]; 363.15 K): 1.02 ± 0.01 mPa·s; mass density ([1]; 363.15 K): 724.9 ± 0.8 kg/m3; viscosity ([1]; 373.15 K): 0.885 ± 0.012 mPa·s; mass density ([1]; 373.15 K): 717.9 ± 0.8 kg/m3
3 | CCCCCCCCCCCCCCCC [hexadecane] | 3.47 ± 0.02 mPa·s |  | 773.37 ± 0.81 kg/m3 | 2.76 ± 0.02 mPa·s |  | 766.43 ± 0.81 kg/m3 | 2.24 ± 0.02 mPa·s |  | 759.51 ± 0.81 kg/m3 | 1.86 ± 0.01 mPa·s |  | 752.61 ± 0.81 kg/m3 | 1.56 ± 0.01 mPa·s | 745.69 ± 0.81 kg/m3 | 1.35 ± 0.01 mPa·s | 738.78 ± 0.81 kg/m3 and 738.8 ± 0.8 kg/m3 | 1.15 ± 0.01 mPa·s | 731.9 ± 0.8 kg/m3 | 1.02 ± 0.01 mPa·s | 724.9 ± 0.8 kg/m3 | speed of sound ([2]; 293.15 K, 101.33 kPa): 1357.4 ± 0.6 m/s; speed of sound ([2]; 303.15 K, 101.33 kPa): 1319.6 ± 0.6 m/s; speed of sound ([2]; 313.15 K, 101.33 kPa): 1282.9 ± 0.6 m/s; speed of sound ([2]; 323.15 K, 101.33 kPa): 1247 ± 0.6 m/s; speed of sound ([2]; 333.15 K, 101.33 kPa): 1212.1 ± 0.6 m/s; viscosity ([2]; 373.15 K, 102 kPa): 0.885 ± 0.012 mPa·s; mass density ([2]; 373.15 K, 102 kPa): 717.9 ± 0.8 kg/m3

Second part, led by results:

Row | viscosity ([2]; 293.15 K, 102 kPa) | speed of sound [2, 3] | mass density ([2]; 293.15 K, 102 kPa) | viscosity ([2]; 303.15 K, 102 kPa) | speed of sound [2, 4] | mass density ([2]; 303.15 K, 102 kPa) | viscosity ([2]; 313.15 K, 102 kPa) | speed of sound [2, 5] | mass density ([2]; 313.15 K, 102 kPa) | viscosity ([2]; 323.15 K, 102 kPa) | speed of sound [2, 6] | mass density ([2]; 323.15 K, 102 kPa) | viscosity ([2]; 333.15 K, 102 kPa) | mass density ([2]; 333.15 K, 102 kPa) | viscosity ([2]; 343.15 K, 102 kPa) | mass density ([2]; 343.15 K, 102 kPa) | viscosity ([2]; 353.15 K, 102 kPa) | mass density ([2]; 353.15 K, 102 kPa) | viscosity ([2]; 363.15 K, 102 kPa) | mass density ([2]; 363.15 K, 102 kPa) | SMILES | further results
4 | 0.996 ± 0.012 mPa·s | 1307.8 ± 0.6 m/s | 793.54 ± 0.81 kg/m3 | 0.86 ± 0.012 mPa·s | 1266.2 ± 0.6 m/s | 785.73 ± 0.81 kg/m3 | 0.75 ± 0.012 mPa·s | 1225.6 ± 0.6 m/s | 777.9 ± 0.81 kg/m3 | 0.663 ± 0.011 mPa·s | 1185.9 ± 0.6 m/s | 770.04 ± 0.81 kg/m3 | 0.584 ± 0.011 mPa·s | 762.12 ± 0.81 kg/m3 | 0.544 ± 0.011 mPa·s | 754.2 ± 0.8 kg/m3 | 0.477 ± 0.011 mPa·s | 746.1 ± 0.8 kg/m3 | 0.452 ± 0.011 mPa·s | 738 ± 0.8 kg/m3 | CCCC1CCCCC1 [1-cyclohexylpropane] | speed of sound [2, 7]: 1147.3 ± 0.6 m/s
5 | 5.32 ± 0.03 mPa·s | 1406.7 ± 0.9 m/s | 818.55 ± 0.81 kg/m3 | 4.09 ± 0.02 mPa·s | 1369.4 ± 0.9 m/s | 811.78 ± 0.81 kg/m3 | 3.23 ± 0.02 mPa·s | 1333 ± 0.9 m/s | 805.02 ± 0.81 kg/m3 | 2.62 ± 0.02 mPa·s | 1297.5 ± 0.9 m/s | 798.27 ± 0.81 kg/m3 | 2.16 ± 0.02 mPa·s | 791.5 ± 0.81 kg/m3 | 1.82 ± 0.02 mPa·s | 784.8 ± 0.8 kg/m3 | 1.55 ± 0.01 mPa·s | 778 ± 0.8 kg/m3 | 1.34 ± 0.01 mPa·s | 771.2 ± 0.8 kg/m3 | CCCCCCCCCCC1CCCCC1 [decylcyclohexane] | speed of sound [2, 7]: 1262.9 ± 0.9 m/s; viscosity ([2]; 373.15 K, 102 kPa): 1.17 ± 0.01 mPa·s; mass density ([2]; 373.15 K, 102 kPa): 764.4 ± 0.8 kg/m3
6 | 4.34 ± 0.04 mPa·s | 1397.2 ± 1.5 m/s | 816.41 ± 0.87 kg/m3 | 3.39 ± 0.03 mPa·s | 1359.6 ± 1.5 m/s | 809.57 ± 0.87 kg/m3 | 2.72 ± 0.02 mPa·s | 1322.9 ± 1.5 m/s | 802.74 ± 0.86 kg/m3 | 2.22 ± 0.02 mPa·s | 1287.1 ± 1.5 m/s | 795.8 ± 0.86 kg/m3 | 1.85 ± 0.02 mPa·s | 789.05 ± 0.86 kg/m3 | 1.57 ± 0.02 mPa·s | 782.2 ± 0.9 kg/m3 | 1.35 ± 0.02 mPa·s | 775.4 ± 0.9 kg/m3 | 1.2 ± 0.02 mPa·s | 768.5 ± 0.9 kg/m3 | CCCCCCCCCC1CCCCC1 [nonylcyclohexane] | speed of sound [2, 7]: 1252.2 ± 1.5 m/s; viscosity ([2]; 373.15 K, 102 kPa): 1.03 ± 0.01 mPa·s; mass density ([2]; 373.15 K, 102 kPa): 761.6 ± 0.9 kg/m3
7 | 2.2 ± 0.02 mPa·s | 1361 ± 1.3 m/s | 807.71 ± 0.84 kg/m3 | 1.81 ± 0.02 mPa·s | 1322.1 ± 1.3 m/s | 800.56 ± 0.84 kg/m3 | 1.51 ± 0.02 mPa·s | 1284.2 ± 1.3 m/s | 793.4 ± 0.84 kg/m3 | 1.29 ± 0.02 mPa·s | 1247.1 ± 1.3 m/s | 786.22 ± 0.84 kg/m3 | 1.09 ± 0.01 mPa·s | 779.02 ± 0.84 kg/m3 | 0.964 ± 0.013 mPa·s | 771.8 ± 0.8 kg/m3 | 0.847 ± 0.013 mPa·s | 764.6 ± 0.8 kg/m3 | 0.758 ± 0.012 mPa·s | 757.3 ± 0.8 kg/m3 | CCCCCCC1CCCCC1 [hexylcyclohexane] | speed of sound [2, 7]: 1211 ± 1.3 m/s
8 | 1.7 ± 0.02 mPa·s | 1345.9 ± 1 m/s | 804.11 ± 0.82 kg/m3 | 1.42 ± 0.01 mPa·s | 1306.4 ± 1 m/s | 796.8 ± 0.82 kg/m3 | 1.21 ± 0.01 mPa·s | 1267.8 ± 1 m/s | 789.47 ± 0.82 kg/m3 | 1.04 ± 0.01 mPa·s | 1230.1 ± 1 m/s | 782.12 ± 0.82 kg/m3 | 0.895 ± 0.012 mPa·s | 774.74 ± 0.82 kg/m3 | 0.799 ± 0.012 mPa·s | 767.3 ± 0.8 kg/m3 | 0.709 ± 0.012 mPa·s | 759.9 ± 0.8 kg/m3 | 0.637 ± 0.012 mPa·s | 752.4 ± 0.8 kg/m3 | CCCCCC1CCCCC1 [pentylcyclohexane] | speed of sound [2, 7]: 1193.4 ± 1 m/s

Reference: the NIST ThermoML archive (doi:10.1021/acs.jced.8b00692)
